This test deals with T1, GABA A α5 (α5β3γ2) (Homo sapiens, UniProt P18507+P31644).
T1 construct: expressed in transfected cells; host or cells: HEK293, transiently transfected; membrane preparation
Kind of test: [3H]flumazenil competition binding, human GABA A α5 receptor. The method, then:
Membrane Preparation and Binding Assay
The affinity of compounds at GABA A receptor subtypes was measured by competition for [3H]flumazenil (85 Ci/mmol; Roche) binding to HEK293 cells expressing rat (stably transfected) or human (transiently transfected) receptors of compositional α1β3γ2, α2β3γ2, α3β3γ2 and α5β3γ2.
Cell pellets were suspended in Krebs-tris buffer (4.8 mM KCl, 1.2 mM CaCl2, 1.2 mM MgCl2, 120 mM NaCl, 15 mM Tris; pH 7.5; binding assay buffer), homogenized by polytron for ca. 20 sec on ice and centrifuged for 60 min at 4° C. (50000 g; Sorvall, rotor: SM24=20000 rpm). The cell pellets were re-suspended in Krebs-tris buffer and homogenized by polytron for ca. 15 sec on ice. Protein was measured (Bradford method, Bio-Rad) and aliquots of 1 mL were prepared and stored at −80° C.
Assays were incubated to equilibrium for 1 hour at 4° C. and harvested onto GF/C uni-filters (Packard) by filtration using a Packard harvester and washing with ice-cold wash buffer (50 mM Tris; pH 7.5). After drying, filter-retained radioactivity was detected by liquid scintillation counting. Ki values were calculated using Excel-Fit (Microsoft) and are the means of two determinations.

The mark [1] stands for this setting: human receptor α5β3γ2 transiently transfected in HEK293 cells, competition for [3H]flumazenil 0.5 nM, 1 hour at 4° C., means of two determinations, read-out: hKi GABA A α5.

Read-outs that look alike come from different tables or passages of the source.

The results in this text go back to US8178522B2, “Thiazoles” (Hoffmann-La Roche Inc., priority 2009, dated 2012).

On to `Cc1onc(-c2ccc(F)cn2)c1CCc1ncc(C(=O)NC2CC2)s1` [Example 42, 2-{2-[3-(5-Fluoro-pyridin-2-yl)-5-methyl-isoxazol-4-yl]-ethyl}-thiazole-5-carboxylic acid cyclopropylamide], for which the Ki turned out to be 12.7 nM.

As for `Cc1nc(/C=C/c2conc2-c2ccc(F)cn2)sc1C(=O)NC1CCOCC1` [Example 90, 2-{(E)-2-[3-(5-Fluoro-pyridin-2-yl)-isoxazol-4-yl]-vinyl}-4-methyl-thiazole-5-carboxylic acid (tetrahydro-pyran-4-yl)-amide], the Ki under setting [1] came to 24.8 nM. `Cc1nc(CCc2c(-c3ccc(F)cn3)noc2C)sc1C(=O)NC1CC1` [Example 33, 2-{2-[3-(5-Fluoro-pyridin-2-yl)-5-methyl-isoxazol-4-yl]-ethyl}-4-methyl-thiazole-5-carboxylic acid cyclopropylamide]: under setting [1], the Ki was 9 nM. The same measure, in the same setting: with `Cc1onc(-c2ccccn2)c1CCc1ncc(C(=O)NC2CC2)s1` [Example 23, 2-[2-(5-Methyl-3-pyridin-2-yl-isoxazol-4-yl)-ethyl]-thiazole-5-carboxylic acid cyclo-propylamide] the figure was 26.1 nM; with `COC(=O)c1cnc(CCc2c(-c3ccccn3)noc2C)s1` [Example 21, 2-[2-(5-Methyl-3-pyridin-2-yl-isoxazol-4-yl)-ethyl]-thiazole-5-carboxylic acid methyl ester], 40.2 nM; with `Cc1onc(-c2ccc(F)cn2)c1/C=C/c1ncc(C(=O)NCC2CC2)s1` [Example 82, 2-{(E)-2-[3-(5-Fluoro-pyridin-2-yl)-5-methyl-isoxazol-4-yl]-vinyl}-thiazole-5-carboxylic acid cyclopropylmethyl-amide], 4.7 nM.

As for `Cc1nc(CCc2c(-c3ccccn3)noc2C)sc1C(=O)NC1CC1` [Example 11, 4-Methyl-2-[2-(5-methyl-3-pyridin-2-yl-isoxazol-4-yl)-ethyl]-thiazole-5-carboxylic acid cyclopropylamide], under setting [1], the Ki amounted to 7.7 nM. For `CCCCc1noc(C)c1/C=C/c1nc(C)c(C(=O)Nc2cnn(C)c2)s1` [Example 112, 2-[(E)-2-(3-Butyl-5-methyl-isoxazol-4-yl)-vinyl]-4-methyl-thiazole-5-carboxylic acid (1-methyl-1-pyrazol-4-yl)-amide], the Ki under setting [1] was found to be 1.3 nM. In the case of `Cc1onc(-c2ccc(F)cn2)c1/C=C/c1ncc(C(=O)NCCO)s1` [Example 85, 2-{(E)-2-[3-(5-Fluoro-pyridin-2-yl)-5-methyl-isoxazol-4-yl]-vinyl}-thiazole-5-carboxylic acid (2-hydroxy-ethyl)-amide], under setting [1], the Ki came to 5.1 nM. Take `Cc1nc(CCc2c(-c3ccc(F)cn3)noc2C)sc1C(=O)NCC1CC1` [Example 34, 2-{2-[3-(5-Fluoro-pyridin-2-yl)-5-methyl-isoxazol-4-yl]-ethyl}-4-methyl-thiazole-5-carboxylic acid cyclopropylmethyl-amide]: under setting [1], the Ki stood at 16 nM. Turning to `Cc1nc(/C=C/c2c(-c3ccccc3)noc2C)sc1C(=O)NC1CCOC1` (centres unmarked) [Example 69, 4-Methyl-2-[(E)-2-(5-methyl-3-phenyl-isoxazol-4-yl)-vinyl]-thiazole-5-carboxylic acid (tetrahydro-furan-3-yl)-amide], the Ki under setting [1] is 0.3 nM. Turning to `CCCCc1noc(C)c1/C=C/c1nc(C)c(C(=O)N2CCC2)s1` [Example 110, Azetidin-1-yl-{2-[(E)-2-(3-butyl-5-methyl-isoxazol-4-yl)-vinyl]-4-methyl-thiazol-5-yl}-methanone], the Ki under setting [1] was 30.8 nM. Still for that read-out and setting: in the case of `Cc1onc(-c2ccccc2)c1COc1ncc(C(=O)NC(C)CO)s1` (centres unmarked) [Example 129, 2-(5-Methyl-3-phenyl-isoxazol-4-ylmethoxy)-thiazole-5-carboxylic acid (2-hydroxy-1-methyl-ethyl)-amide] it was 4.2 nM. With `Cc1nc(CCc2c(-c3ccccn3)noc2C)sc1C(=O)NCC1CC1` [Example 12, 4-Methyl-2-[2-(5-methyl-3-pyridin-2-yl-isoxazol-4-yl)-ethyl]-thiazole-5-carboxylic acid cyclopropylmethyl-amide], the Ki under setting [1] amounted to 13.4 nM.
